Laboratory results reported in PubChem BioAssay (NCI).
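Five compound concentrations were applied to cells in 96-well plates for 48 hours; endpoints were derived by simple linear interpolation of the resulting dose-response curve. TGI denotes the concentration required for complete inhibition of growth.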

Assays:
Experiment in all cases: growth of human tumour cells (NCI), 48 h
[1] = system: SN12C renal
[2] = system: SNB-75 CNS
[3] = system: NCI/ADR-RES ovarian
[4] = system: SK-MEL-2 melanoma
[5] = system: LOX IMVI melanoma
[6] = system: SK-MEL-5 melanoma
[7] = system: RPMI-8226 leukemia
[8] = system: SF-539 CNS
[9] = system: M14 melanoma
[10] = system: RXF 393 renal
[11] = system: U251 CNS
[12] = system: DU-145 prostate
[13] = system: SNB-19 CNS
[14] = system: UACC-62 melanoma
[15] = system: MALME-3M melanoma
[16] = system: PC-3 prostate
[17] = system: COLO 205 colon
[18] = system: SF-268 CNS
[19] = system: 786-0 renal
[20] = system: HCC-2998 colon
[21] = system: NCI-H226 lung
[22] = system: HS 578T breast
[23] = system: MCF7 breast
[24] = system: SR leukemia
[25] = system: HT29 colon
[26] = system: T-47D breast
[27] = system: CCRF-CEM leukemia
[28] = system: SF-295 CNS
[29] = system: OVCAR-4 ovarian
[30] = system: BT-549 breast
[31] = system: SK-MEL-28 melanoma
[32] = system: K-562 leukemia
[33] = system: HL-60(TB) leukemia
[34] = system: EKVX NSCLC
[35] = system: HOP-62 NSCLC
[36] = system: HOP-92 NSCLC
[37] = system: NCI-H460 lung
[38] = system: MDA-N
[39] = system: HCT-15 colon
[40] = system: MOLT-4 leukemia
[41] = system: NCI-H522 lung
[42] = system: IGROV1 ovarian
[43] = system: HCT-116 colon
[44] = system: OVCAR-3 ovarian
[45] = system: UACC-257 melanoma
[46] = system: CAKI-1 renal
[47] = system: SK-OV-3 ovarian
[48] = system: A549 NSCLC
[49] = system: UO-31 renal
[50] = system: KM12 colon
[51] = system: SW-620 colon
[52] = system: MDA-MB-231 breast
[53] = system: OVCAR-8 ovarian
[54] = system: MDA-MB-435
[55] = system: TK-10 renal
[56] = system: NCI-H23 lung

Measured: TGI

CC(=O)OCC1CCC(=C2C(=O)OC(C)(C)OC2=O)N1 (stereo unspecified)
> 100 µM: all assays above
